Laboratory results reported in publication PMC9916883, “Betaine- and L-Carnitine-Based Ionic Liquids as Solubilising and Stabilising Agents for the Formulation of Antimicrobial Eye Drops Containing Diacerein” (International Journal of Molecular Sciences, 2023).
Values joined by “and” are separate entries in the source; they are usually repeats but may differ in a detail not shown here. Identical values can stand only once. Like-named read-outs stand apart in the source and are kept apart here. Values belong to the molecule of their own block, whether it stands above or below them.

Experiments:
[1] = Critical aggregation concentration (CAC) by surface tension; type: physicochemical; conditions: in water; for critical aggregation concentration (CAC): via surface tension
Experimental: The CACs of the ILs were determined by measuring the surface tension (Tensiometer du Nouy, Force Tensiometer K6 from KRÜSS (GmbH)) of aqueous solutions with increasing IL concentrations. Milli-Q H2O was used as a reference, with γ equal to 71 ± 1.3 mN/m at 25 ± 2 °C (Dortmund databank reference, 71.5 ± 0.5 mN/m 24 ± 1.4 °C). Surface tension values were plotted vs. logarithms of the ILs’ concentrations, linear fits were applied to the data points, and CAC was determined as the intersection of the two linear fits relative to the initial surface tension depression and the further plateau.

[2] = IL aggregates' size and zeta potential in aqueous solutions (DLS, Zetasizer); type: physicochemical
Experimental: The size distribution and zeta potential values of the ILs’ aggregates in aqueous solutions were evaluated by using a Zetasizer Nano ZS (Malvern) at 25 °C. The samples were prepared by adding an excess of either DIA or Rhe (5 mg/mL) to the aqueous IL solutions, incubating them for 30 min at 25 °C, and finally removing the excess drugs by centrifugation. […] In contrast, for PB solutions, the solutions were prepared in water, and […] of 100 mM pH 7 phosphate buffer was added per 1 mL of aqueous solution, directly in the cuvette, before the dynamic light scattering (DLS) analysis started. The concentrations of the solubilised drug were determined by UV–Vis analysis.

[3] = test system: type II porcine gastric mucin; assay: Mucoadhesion by microrheological method; type: physicochemical
Experimental: The measurements were performed using the Zetasizer Nano ZS instrument, as previously reported. The microrheological characterisation of the ILs was performed using type II porcine gastric mucin. Porcine gastric mucin was used because no ocular mucins were available, and as it has already been used for ocular models. Briefly, a 3 mg/mL suspension of type II porcine gastric mucin was prepared in Milli-Q water and filtered through 0.45 µm cellulose acetate filters. Next, 0.27 M and 0.20 M solutions of both ionic liquids in deionised water were prepared (corresponding to concentrations 15% higher and lower than the CAC, respectively). One millilitre of each sample to be tested had the following composition: 5 µL of tracer (latex polystyrene particles, diameter 500 nm, Beckman), 7.38 mg/mL of IL solution, 0.3 mg of mucin, and 8.1 mg/mL of 5% NaCl. As a reference, 1 mL of sample was prepared with the same composition but without the ILs. All measurements were carried out in triplicate.

[4] = test system: BALB/3T3 clone A31 fibroblast cells; assay: Cytotoxicity screening (WST-1); type: cell-based, murine; conditions: Mus musculus, 4 h incubation, read-out: IC50 of cell viability
Experimental: BALB/3T3 clone A31 fibroblast cells were grown in Dulbecco’s Modified Eagle Medium (DMEM), supplemented with 2 mM L-glutamine, 1% penicillin/streptomycin, and 10% bovine calf serum. Cells were grown in a CO2 incubator (Heracell 150i series) at 37 °C and 5% CO2, with cells sub-cultured at 80–90% confluency. The cell monolayers were rinsed with PBS and treated with trypsin–EDTA to detach the cells before their resuspension in fresh media. A subconfluent monolayer of BALB/3T3 clone A31 fibroblast cells was trypsinised, centrifuged at 1000 rpm for 5 min, resuspended in growth medium, and counted.
A cytotoxicity screening was carried out for both ILs (range […]), as well as DIA and Rhe (0.5–200 mg/mL). Briefly, BALB/3T3 clone A31 fibroblast cells were seeded in each well of 96-well plates at a seeding density of 6 × 10^3 cells/well for 24 h, until 60–70% confluence was reached. After 24 h, the medium was then removed from each well and replaced with DMEM containing the samples.
After 4 h of incubation, the media were removed, replaced with fresh medium containing 10% WST-1 reagent solution, and maintained for 4 h at 37° C with 5% CO2. Afterwards, formazan dye absorbance was quantified at 450 nm with the reference wavelength at 655 nm by using a multilabel reader (BioTek 800/TS, Thermo Scientific).

S. aureus W4 = assay: Killing assay; type: cell-based, Staphylococcus aureus; conditions: 3 h incubation in 5% TSB, ILs 0.27 M; for bactericidal effect: DIA 0.34 M; for CFU after treatment (limit of detection): DIA 0.34 M if loaded
Experimental: (§1) To this end, the bacterial strains were grown in TSB until the exponential phase, and approximately 5 × 10^4 CFU/mL-contained in 10 μL-was added to 5 μL of TSB, 35 μL of water, and 50 μL of one of the following solutions corresponding to the eye drop compositions tested in vivo: Bet6 or Carn6 with 0.27 M or 0.34 M DIA, plain DIA (0.34 M) solution, or plain Bet6/plain Carn6, both at 0.27 M. All solutions were prepared in CB. The samples were incubated at 37 °C with shaking for 3 h. A sample containing 0.6% DMSO (corresponding to the highest concentration of DMSO tested) was used as a control. Following incubation, the samples were diluted 10-fold in LB and plated on tryptone soy agar (TSA, Oxoid) to determine the number of CFU. Bactericidal activity was defined as a reduction of at least 3 Log10 in the number of viable bacteria as compared to the inoculum.

P. aeruginosa ATCC 27853 = assay: Killing assay; type: cell-based, Pseudomonas aeruginosa; conditions: 3 h incubation in 5% TSB, ILs 0.27 M; for bactericidal effect: DIA 0.34 M; for CFU after treatment (limit of detection): DIA 0.34 M if loaded
Experimental: as §1

[5] = IL 180 μg/mL, DIA + (saturation), CB pH5
[6] = IL 180 μg/mL, Rhe + (saturation), PB pH7
[7] = IL 200 μg/mL, DIA + (saturation), CB pH5
[8] = IL 200 μg/mL, DIA + (saturation), H2O pH4
[9] = IL 200 μg/mL, Rhe + (saturation), H2O pH4
[10] = mucin with IL at 0.20 M (lower than CAC)
[11] = mucin with IL at 0.27 M (higher than CAC)

surface tension at the CAC (σ) [1]: 36.1 mN/m
critical aggregation concentration (CAC) [1]: 0.226 M and 0.226 ± 0.020 M
PDI ([2]; IL 90 μg/mL, no drug, H2O pH4): 0.01 ± 0.002
Ø (aggregates size) ([2]; IL 90 μg/mL, no drug, H2O pH4): 1.17 ± 0.03 nm
PDI ([2]; IL 105 μg/mL, no drug, H2O pH4): 0.01 ± 0.002
Ø (aggregates size) ([2]; IL 105 μg/mL, no drug, H2O pH4): 1.53 ± 0.07 nm
PDI ([2]; IL 170 μg/mL, no drug, H2O pH4): 0.03 ± 0.016
Ø (aggregates size) ([2]; IL 170 μg/mL, no drug, H2O pH4): 2.12 ± 0.14 nm
PDI [2, 5]: 0.01 ± 0.005
Ø (aggregates size) [2, 5]: 2.24 ± 0.47 nm
ζ (zeta potential) [2, 5]: 1.85 ± 0.47 mV
PDI [2, 6]: 0.02 ± 0.005
Ø (aggregates size) [2, 6]: 2.03 ± 0.46 nm
ζ (zeta potential) [2, 6]: 9.38 ± 1.22 mV
PDI ([2]; IL 180 μg/mL, no drug, CB pH5): 0.01 ± 0.005
Ø (aggregates size) ([2]; IL 180 μg/mL, no drug, CB pH5): 2.04 ± 0.43 nm
ζ (zeta potential) ([2]; IL 180 μg/mL, no drug, CB pH5): 2.56 ± 0.34 mV
PDI ([2]; IL 180 μg/mL, no drug, PB pH7): 0.004± 0.005
Ø (aggregates size) ([2]; IL 180 μg/mL, no drug, PB pH7): 1.91 ± 0.27 nm
ζ (zeta potential) ([2]; IL 180 μg/mL, no drug, PB pH7): 10.70 ± 1.16 mV
PDI [2, 7]: 0.01 ± 0.005
Ø (aggregates size) [2, 7]: 2.40 ± 0.56 nm
ζ (zeta potential) [2, 7]: 4.17 ± 0.20 mV
PDI [2, 8]: 0.02 ± 0.005
Ø (aggregates size) [2, 8]: 2.14 ± 0.55 nm
ζ (zeta potential) [2, 8]: 12.20 ± 1.96 mV
PDI [2, 9]: 0.02 ± 0.005
Ø (aggregates size) [2, 9]: 2.11 ± 0.50 nm
ζ (zeta potential) [2, 9]: 12.80 ± 1.27 mV
PDI ([2]; IL 200 μg/mL, no drug, CB pH5): 0.07 ± 0.005
Ø (aggregates size) ([2]; IL 200 μg/mL, no drug, CB pH5): 2.34 ± 0.66 nm
ζ (zeta potential) ([2]; IL 200 μg/mL, no drug, CB pH5): 2.08 ± 0.13 mV
PDI ([2]; IL 200 μg/mL, no drug, H2O pH4): 0.01 ± 0.005
Ø (aggregates size) ([2]; IL 200 μg/mL, no drug, H2O pH4): 1.87 ± 0.42 nm
ζ (zeta potential) ([2]; IL 200 μg/mL, no drug, H2O pH4): 14.30 ± 2.33 mV
Relative Viscosity [3, 10]: 0.75 ± 0.01 cP
Relative Viscosity [3, 11]: 1.31 ± 0.26 cP
Compound: CCCCCCOC(=O)C[C@@H](O)C[N+](C)(C)C [Carn6, (R)-(4-hexyloxy-2-hydroxy-4-oxobutyl)-trimethylammonium bromide]
IC50 [4]: 9000 µg/mL
IC50 ([4]; murine fibroblasts): 27.8 mM
bactericidal effect (S. aureus W4): strong bactericidal effect
CFU after treatment (limit of detection) (S. aureus W4): < 100 CFU/mL
bactericidal effect (P. aeruginosa ATCC 27853): strong bactericidal effect
CFU after treatment (limit of detection) (P. aeruginosa ATCC 27853): < 100 CFU/mL

surface tension at the CAC (σ) [1]: 34.2 mN/m
critical aggregation concentration (CAC) [1]: 0.227 M and 0.227 ± 0.016 M
PDI ([2]; IL 90 μg/mL, no drug, H2O pH4): 0.01 ± 0.002
Ø (aggregates size) ([2]; IL 90 μg/mL, no drug, H2O pH4): 0.80 ± 0.03 nm
PDI ([2]; IL 105 μg/mL, no drug, H2O pH4): 0.01 ± 0.005
Ø (aggregates size) ([2]; IL 105 μg/mL, no drug, H2O pH4): 0.96 ±0.07 nm
PDI ([2]; IL 170 μg/mL, no drug, H2O pH4): 0.01 ± 0.005
Ø (aggregates size) ([2]; IL 170 μg/mL, no drug, H2O pH4): 1.96 ± 0.30 nm
PDI [2, 5]: 0.01 ± 0.005
Ø (aggregates size) [2, 5]: 1.73 ± 0.40 nm
ζ (zeta potential) [2, 5]: 2.82 ± 1.17 mV
PDI [2, 6]: 0.03 ± 0.005
Ø (aggregates size) [2, 6]: 1.71 ± 0.49 nm
ζ (zeta potential) [2, 6]: 5.77 ± 0.54 mV
PDI ([2]; IL 180 μg/mL, no drug, CB pH5): 0.01 ± 0.005
Ø (aggregates size) ([2]; IL 180 μg/mL, no drug, CB pH5): 1.76 ± 0.38 nm
ζ (zeta potential) ([2]; IL 180 μg/mL, no drug, CB pH5): 0.65 ± 0.53 mV
PDI ([2]; IL 180 μg/mL, no drug, PB pH7): 0.01 ± 0.005
Ø (aggregates size) ([2]; IL 180 μg/mL, no drug, PB pH7): 1.79 ± 0.41 nm
ζ (zeta potential) ([2]; IL 180 μg/mL, no drug, PB pH7): 8.93 ± 0.94 mV
PDI [2, 7]: 0.02 ± 0.005
Ø (aggregates size) [2, 7]: 2.01 ± 0.60 nm
ζ (zeta potential) [2, 7]: 0.16 ± 1.85 mV
PDI [2, 8]: 0.02 ± 0.005
Ø (aggregates size) [2, 8]: 1.69 ± 0.92 nm
ζ (zeta potential) [2, 8]: 9.53 ± 1.68 mV
PDI [2, 9]: 0.01 ±0.005
Ø (aggregates size) [2, 9]: 1.63 ± 0.21 nm
ζ (zeta potential) [2, 9]: 8.17 ± 0.94 mV
PDI ([2]; IL 200 μg/mL, no drug, CB pH5): 0.03 ± 0.005
Ø (aggregates size) ([2]; IL 200 μg/mL, no drug, CB pH5): 1.97 ± 0.44 nm
ζ (zeta potential) ([2]; IL 200 μg/mL, no drug, CB pH5): 2.62 ± 0.96 mV
PDI ([2]; IL 200 μg/mL, no drug, H2O pH4): 0.01 ± 0.005
Ø (aggregates size) ([2]; IL 200 μg/mL, no drug, H2O pH4): 1.81 ± 0.41 nm
ζ (zeta potential) ([2]; IL 200 μg/mL, no drug, H2O pH4): 13.70 ± 1.60 mV
Relative Viscosity [3, 10]: 0.79 ± 0.01 cP
Relative Viscosity [3, 11]: 1.32 ± 0.13 cP
Compound: CCCCCCOC(=O)C[N+](C)(C)C.[Br-] [Bet6, (2-hexyloxy-2-oxoethyl)-trimethylammonium bromide]
IC50 [4]: 7500 µg/mL
IC50 ([4]; murine fibroblasts): 26.8 mM
bactericidal effect (S. aureus W4): strong bactericidal effect
CFU after treatment (limit of detection) (S. aureus W4): < 100 CFU/mL
bactericidal effect (P. aeruginosa ATCC 27853): strong bactericidal effect
CFU after treatment (limit of detection) (P. aeruginosa ATCC 27853): < 100 CFU/mL
